Measured values as given in PubChem BioAssay (NCI).
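How tested: cells in 96-well plates exposed to compound for 48 hours at five concentrations. Here, GI50 denotes the concentration required for 50% inhibition of growth. At the TGI there is no net growth.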

Experiments:
Test in all cases: NCI-60 cell line screen, 48 h
IGROV1 ovarian = tested on: IGROV1 ovarian
NCI-H226 lung = tested on: NCI-H226 lung
NCI-H23 lung = tested on: NCI-H23 lung
SK-OV-3 ovarian = tested on: SK-OV-3 ovarian
SF-295 CNS = tested on: SF-295 CNS
COLO 205 colon = tested on: COLO 205 colon
DMS 273 small cell lung = tested on: DMS 273 small cell lung
KM20L2 colon = tested on: KM20L2 colon
CAKI-1 renal = tested on: CAKI-1 renal
MCF7 breast = tested on: MCF7 breast

Compound	TGI (IGROV1 ovarian) [µM]	TGI (NCI-H226 lung) [µM]	TGI (NCI-H23 lung) [µM]	TGI (SK-OV-3 ovarian) [µM]	TGI (SF-295 CNS) [µM]	TGI (COLO 205 colon) [µM]	TGI (DMS 273 small cell lung) [µM]	TGI (KM20L2 colon) [µM]	GI50 (IGROV1 ovarian) [µM]	GI50 (NCI-H226 lung) [µM]	GI50 (NCI-H23 lung) [µM]	GI50 (SK-OV-3 ovarian) [µM]	GI50 (SF-295 CNS) [µM]	GI50 (COLO 205 colon) [µM]	GI50 (CAKI-1 renal) [µM]	TGI (CAKI-1 renal) [µM]	GI50 (KM20L2 colon) [µM]	GI50 (MCF7 breast) [µM]	TGI (MCF7 breast) [µM]
O=C(O)C(CP(=O)(O)O)=C(Cl)Cl	> 100	> 100	> 100	> 100	> 100	> 100	> 100	> 100	–	–	–	–	–	–	–	–	–	–	–
CC(=O)[CH-]C(=O)c1ccccc1.CC(=O)[CH-]C(=O)c1ccccc1.CC[O-].CC[O-].[Zr+4]	> 100	> 100	> 100	> 100	> 100	> 100	–	> 100	> 100	> 100	> 100	> 100	> 100	> 100	62.8	> 100	> 100	–	–
COc1cc(/C=C2/C(=O)N(C(=O)OC(C)C)C(Cc3cc(OC)c(OC)c(C)c3OC)C(=O)N2Cc2ccccc2)c(OC)c(C)c1OC (stereo not drawn)	> 100	30	> 100	> 100	> 100	> 100	> 100	> 100	–	–	–	–	–	–	–	> 100	–	–	–
Cc1c(Cl)ccc2c1NC(=O)C2(O)C(C(=O)c1ccccc1)c1ccccc1 (stereo not drawn)	> 100	> 100	42.2	> 100	92.6	> 100	> 100	> 100	–	–	–	–	–	–	–	> 100	–	–	–
COc1ccc(C(=O)C(c2ccc(OC)cc2)C2(O)C(=O)Nc3ccccc32)cc1 (stereo not drawn)	> 100	> 100	> 100	> 100	> 100	–	> 100	> 100	–	–	–	–	–	–	–	> 100	–	–	–
O=S1c2ccccc2N=C(c2ccc3ccccc3c2)CC1C1=CC=CCC1 (stereo not drawn)	28.9	43.9	30.6	50.4	39.6	37.9	41	37.2	–	–	–	–	–	–	–	29.6	–	–	–
COc1cc(/C=C2\[C@H]3c4c(c(OC)c(C)c(OC)c4OC)C[C@@H](C(=O)N2Cc2ccccc2)N3C(=O)OCC(C)C)c(OC)c(C)c1OC	> 100	40.9	> 100	> 100	> 100	> 100	> 100	> 100	–	–	–	–	–	–	–	> 100	–	–	–
Cc1cc(O)cc2oc(=O)c3c(O)cc(O)cc3c12	74.7	91.8	48	45.5	63.6	66.7	58.2	> 100	–	–	–	–	–	–	–	90	–	–	–
COc1cc(C2=NN(C)C(c3ccc([N+](=O)[O-])o3)C2)cc(OC)c1OC (stereo not drawn)	> 100	> 100	> 100	> 100	> 100	> 100	> 100	> 100	–	–	–	–	–	–	–	> 100	–	–	–
CN(C)CCNC(=O)c1cc2ccccc2c2nc3ccccc3nc12	> 20.7	2.44	2.69	> 31.6	–	> 100	> 100	2.93	–	–	–	–	–	–	–	> 21.3	–	–	–
C/C(=C\C(C)COCc1ccccc1)[C@H](COCc1ccccc1)OCc1ccccc1 (stereo partly drawn)	> 100	> 100	> 100	> 100	> 100	> 100	> 100	> 100	–	–	–	–	–	–	–	–	–	–	–
C[n+]1c(/C=C\c2ccc(Cl)cc2)ccc2ccccc21	> 100	> 100	> 100	> 100	> 100	24.4	–	–	27.2	72.1	31	46.6	13.8	4.28	66.6	> 100	–	20.2	> 100
O=c1/c(=C/c2cccc([N+](=O)[O-])c2)sc2nc3ccccc3n12	–	> 100	> 100	> 100	–	–	> 100	–	–	–	–	–	–	–	–	–	–	–	–
Cn1cncc1[C@@](N)(c1ccc(Cl)cc1)c1ccc2c(c1)c(-c1cccc(Cl)c1)cc(=O)n2C	13	21.5	14.4	21.2	6.35	9.09	–	–	2.33	5.98	2.64	7.24	0.534	2.31	3.08	14.7	–	1.55	13.5
COc1cc(-c2nc(Nc3nc4ccccc4[nH]3)nc(N)c2C#N)cc(OC)c1OC	> 54	> 89.3	40.2	56.8	–	> 50.7	–	–	6.2	32.7	12.2	4.4	0.191	1.74	6.04	> 60.6	–	0.503	> 33.8
COc1cccc(C2c3cc4c(cc3OC(C)(O)C2C)OCO4)c1O (stereo not drawn)	69.2	18.7	12.4	42.8	14.1	6.15	–	–	–	–	–	–	–	–	–	15.7	–	–	49.6
CC1=CC(=NC(=O)CBr)C=C/C1=N\S(=O)(=O)c1ccccc1	12.1	40.2	5.99	27.7	33.1	21.2	–	–	3.1	15.1	2.36	14.2	15.8	5.96	3.11	11.4	–	1.8	4.37
N#C/C(=C\c1ccc(-c2ccc(Cl)cc2)o1)C(=O)Nc1ncc(Cc2ccc(Cl)cc2)s1	5.99	5.41	4.17	9.52	8.73	7.39	–	–	2.2	2.08	1.82	3.24	2.84	2.45	1.63	3.46	–	2.51	> 100
COC(=O)C1=C2CCC(=O)[C@@]2(C)C(OC(C)=O)C=CC1 (stereo partly drawn)	> 100	> 100	> 100	> 100	> 100	–	> 100	> 100	–	–	–	–	–	–	–	> 100	–	–	–

Compound	TGI (IGROV1 ovarian) [µM]	TGI (NCI-H226 lung) [µM]	TGI (NCI-H23 lung) [µM]	TGI (SK-OV-3 ovarian) [µM]	TGI (SF-295 CNS) [µM]	TGI (COLO 205 colon) [µM]	TGI (DMS 273 small cell lung) [µM]	TGI (KM20L2 colon) [µM]	GI50 (IGROV1 ovarian) [µM]	GI50 (NCI-H226 lung) [µM]	GI50 (NCI-H23 lung) [µM]	GI50 (SK-OV-3 ovarian) [µM]	GI50 (SF-295 CNS) [µM]	GI50 (COLO 205 colon) [µM]	GI50 (CAKI-1 renal) [µM]	TGI (CAKI-1 renal) [µM]	GI50 (KM20L2 colon) [µM]	GI50 (MCF7 breast) [µM]	TGI (MCF7 breast) [µM]
C/C=C(\C)C(=O)N[C@H]1CC[C@]2(C)C3CC[C@@]4(C)C(CC[C@@H]4C(C)N(C)C)C3CCC2[C@H]1OC(C)=O (stereo partly drawn)	8.86	7.53	5.01	4.27	4.05	3.06	–	–	2.38	2.38	1.91	2.06	1.88	1.59	2.11	4.86	–	1.27	2.92
CCCN(CCC)C(=O)C1=Cc2ccc(-c3ccc(C(=O)N4CCCC4)cc3)cc2N=C(N)C1	54.8	62	38.9	87	24.5	16.3	–	–	14.4	12.1	8.92	18.2	4.92	4.26	7.66	40.3	–	3.32	15.3
Oc1ccccc1-c1nn(CNc2cccc(Cl)c2)c(=S)o1	> 100	> 100	71.8	> 100	> 100	> 100	–	–	81.5	54.2	22.8	> 100	> 100	53.8	65.4	> 100	–	37.9	> 100
O=C(Nc1ccccc1O)c1cccc(NC2=C(Cl)C(=O)N(Cc3ccccc3)C2=O)c1	8.65	11.5	9.38	31.5	12.5	40	–	–	2.87	3.7	3.44	12.8	4.46	13.2	5.12	12.7	–	2.7	14.8
CS(=O)(=O)NNS(=O)(=O)c1cccc([N+](=O)[O-])c1	> 100	> 100	> 100	–	> 100	> 100	> 100	> 100	–	–	–	–	–	–	–	> 100	–	–	–
Oc1ccc(-c2nnc3sc(-c4ccc(F)c(Oc5ccccc5)c4)nn23)cc1	> 100	98.4	92.2	> 100	59.9	> 100	–	–	47.4	24.6	29.3	44.6	23.2	96	20.8	80.6	–	14.6	> 100
Cc1nn(-c2nc3ccccc3s2)c(C)c1Oc1ccccc1O	35.8	26	26.3	24.8	17.2	31.1	–	–	12.6	9.07	12.3	7.57	3.2	15.7	10.9	22.9	–	4.19	24.6
CC1(C)COC(C23C4C5C2C2C3C4C52I)=N1 (stereo not drawn)	> 100	> 100	> 100	> 100	> 100	> 100	–	> 100	–	–	–	–	–	–	–	> 100	–	–	–
C=C1C(=O)O[C@@H]2C[C@@]3(C)CCC[C@H](C)C3=C[C@H]12	29.6	29.5	17.5	40.4	34.5	3.39	–	–	–	–	–	–	–	–	–	17.3	–	–	17.2
COc1ccc(C(=O)OCC2OC(n3cnc4c(=S)nc[nH]c43)C(OC(=O)c3ccc(OC)cc3)C2OC(=O)c2ccc(OC)cc2)cc1 (stereo not drawn)	> 100	> 100	> 100	–	> 100	> 100	> 100	> 100	–	–	–	–	–	–	–	> 100	–	–	–
CC(=O)N1c2ccccc2C23CCN(C)CC4C(C)OCC(C4CC2=O)C13 (stereo not drawn)	> 100	> 100	> 100	> 100	> 100	> 100	–	–	–	–	–	–	–	–	–	> 100	–	–	> 100
C1=Cc2ccccc2Nc2ccccc21	> 100	> 100	> 100	> 100	> 100	> 100	–	–	> 100	> 100	> 100	> 100	> 100	> 100	> 100	> 100	–	74.7	> 100
[O-]c1c2c(nn1-c1ccccc1)c1ccccc1c[n+]2Cc1ccccc1	> 100	> 100	> 100	> 100	> 100	> 100	> 100	> 100	–	–	–	–	–	–	–	–	–	–	–
Cc1cc2c(cc1Cl)SC1=CC(=O)N(c3ccccc3)C1=NS2(=O)=O	> 100	> 100	> 100	> 100	> 100	67	–	–	53.9	66.7	> 100	> 100	> 100	26.4	> 100	> 100	–	39.4	> 100
CCOc1c(Br)cc(C2C(C(=O)OC)=CN(C)C=C2C(=O)OC)cc1OC	> 100	> 100	> 100	> 100	> 100	> 100	–	–	> 100	86.3	84.9	> 100	57.9	99.2	44.3	> 100	–	40.6	> 100
COc1ccc(CCN2C(=O)C=CC2=O)cc1OC	36.7	13	53.8	33	33.5	3.54	–	–	–	–	–	–	–	–	–	27.4	–	–	39.7
COc1ccc2nc(-c3cc(-c4cc(OC)c(OC)c(OC)c4)n[nH]3)[nH]c2c1	7.11	2.98	4.91	9.17	5.24	3.24	–	–	1.9	0.462	1.34	2.83	1.62	1.61	1.79	5.64	–	2.15	6.66
COc1cc(NS(C)(=O)=O)ccc1Nc1c2ccc(Cl)cc2nc2c(OC)cccc12	6.89	0.83	5.36	2	1.11	2.35	–	–	0.331	0.0806	0.125	0.117	0.0356	0.182	0.0316	1.87	–	< 0.0161	13.2
